In BindingDB's records for doi:10.1021/acs.jmedchem.0c00377 (Huazhong University of Science and Technology, 2020) one finds Kd data, which are given here for one molecule.

The nature of assay [1]: Binding affinity to recombinant TNFalpha (unknown origin) expressed in Escherichia coli BL21 (DE3) assessed as Kd for TNF-alpha-TNFR1 binding at 10 uM pe-incubated for 15 mins before TNFR1 addition and measured after 15 mins by MST assay (Rvb = 0.23 uM).
A short description of assay [2]: Binding affinity to recombinant TNFalpha (unknown origin) expressed in Escherichia coli BL21 (DE3) assessed as Kd for TNF-alpha-TNFR1 binding at 100 uM pe-incubated for 15 mins before TNFR1 addition and measured after 15 mins by MST assay (Rvb = 0.23 uM).

For orientation: Kd means the constant that tells how readily two partners part at equilibrium.

In the case of `O=C1C[C@H](Nc2ncnc3[nH]cnc23)CN1Cc1ccccc1`, the results for the Kd in assay [1] and in assay [2] were 4.26 µM and 19.6 µM, respectively.
